We go through 17 molecules from ChEMBL document CHEMBL1150356, “Design, synthesis and biological evaluation of substituted pyrrolo[2,3-d]pyrimidines as multiple receptor tyrosine kinase inhibitors and antiangiogenic agents” (Bioorg Med Chem, 2008).

pIC50: −log10 of the molar value. A value given as a limit tells only on which side of the number the result lay.

What is called pIC50 is the IC50 on a negative log10 scale, so that one unit is a factor of ten. A low value points to a high IC50.

Sequence of Epidermal growth factor receptor (P00533 whole entry): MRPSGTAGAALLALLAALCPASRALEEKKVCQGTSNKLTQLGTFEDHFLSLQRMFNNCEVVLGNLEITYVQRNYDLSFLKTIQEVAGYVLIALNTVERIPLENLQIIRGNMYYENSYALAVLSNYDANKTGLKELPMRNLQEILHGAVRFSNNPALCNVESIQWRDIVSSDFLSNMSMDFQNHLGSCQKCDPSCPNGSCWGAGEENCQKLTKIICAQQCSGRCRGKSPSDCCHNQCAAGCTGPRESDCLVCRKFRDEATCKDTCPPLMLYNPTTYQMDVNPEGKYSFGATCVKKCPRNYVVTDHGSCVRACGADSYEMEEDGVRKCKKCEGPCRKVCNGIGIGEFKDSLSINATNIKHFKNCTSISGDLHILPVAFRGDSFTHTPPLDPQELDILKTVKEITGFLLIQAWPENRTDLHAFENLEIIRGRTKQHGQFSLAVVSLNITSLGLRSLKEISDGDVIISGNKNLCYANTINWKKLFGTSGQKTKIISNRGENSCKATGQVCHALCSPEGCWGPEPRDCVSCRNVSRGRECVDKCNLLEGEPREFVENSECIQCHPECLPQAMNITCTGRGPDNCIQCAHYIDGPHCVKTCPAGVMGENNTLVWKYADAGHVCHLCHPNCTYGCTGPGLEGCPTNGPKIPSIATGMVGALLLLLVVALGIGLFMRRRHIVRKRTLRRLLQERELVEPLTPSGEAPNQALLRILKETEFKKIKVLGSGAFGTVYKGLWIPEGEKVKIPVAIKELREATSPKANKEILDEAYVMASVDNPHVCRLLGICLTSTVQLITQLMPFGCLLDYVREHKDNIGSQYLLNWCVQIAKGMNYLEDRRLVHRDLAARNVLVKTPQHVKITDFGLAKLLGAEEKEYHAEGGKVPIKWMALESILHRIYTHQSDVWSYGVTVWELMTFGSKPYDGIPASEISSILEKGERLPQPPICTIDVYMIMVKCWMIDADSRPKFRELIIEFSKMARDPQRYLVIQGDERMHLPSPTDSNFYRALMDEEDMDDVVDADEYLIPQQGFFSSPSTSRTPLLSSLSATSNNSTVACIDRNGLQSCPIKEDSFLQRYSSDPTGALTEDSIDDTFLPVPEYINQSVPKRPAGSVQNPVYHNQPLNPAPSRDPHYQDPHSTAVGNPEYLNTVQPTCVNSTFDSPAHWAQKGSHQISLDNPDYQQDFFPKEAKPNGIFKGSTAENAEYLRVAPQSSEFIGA

For one experiment, the target named is Platelet-derived growth factor receptor beta (Homo sapiens, UniProt P09619). The experiment in a line: Inhibition of PDGFRbeta expressed in human tumor cells.
Sequence of Platelet-derived growth factor receptor beta (P09619 whole entry): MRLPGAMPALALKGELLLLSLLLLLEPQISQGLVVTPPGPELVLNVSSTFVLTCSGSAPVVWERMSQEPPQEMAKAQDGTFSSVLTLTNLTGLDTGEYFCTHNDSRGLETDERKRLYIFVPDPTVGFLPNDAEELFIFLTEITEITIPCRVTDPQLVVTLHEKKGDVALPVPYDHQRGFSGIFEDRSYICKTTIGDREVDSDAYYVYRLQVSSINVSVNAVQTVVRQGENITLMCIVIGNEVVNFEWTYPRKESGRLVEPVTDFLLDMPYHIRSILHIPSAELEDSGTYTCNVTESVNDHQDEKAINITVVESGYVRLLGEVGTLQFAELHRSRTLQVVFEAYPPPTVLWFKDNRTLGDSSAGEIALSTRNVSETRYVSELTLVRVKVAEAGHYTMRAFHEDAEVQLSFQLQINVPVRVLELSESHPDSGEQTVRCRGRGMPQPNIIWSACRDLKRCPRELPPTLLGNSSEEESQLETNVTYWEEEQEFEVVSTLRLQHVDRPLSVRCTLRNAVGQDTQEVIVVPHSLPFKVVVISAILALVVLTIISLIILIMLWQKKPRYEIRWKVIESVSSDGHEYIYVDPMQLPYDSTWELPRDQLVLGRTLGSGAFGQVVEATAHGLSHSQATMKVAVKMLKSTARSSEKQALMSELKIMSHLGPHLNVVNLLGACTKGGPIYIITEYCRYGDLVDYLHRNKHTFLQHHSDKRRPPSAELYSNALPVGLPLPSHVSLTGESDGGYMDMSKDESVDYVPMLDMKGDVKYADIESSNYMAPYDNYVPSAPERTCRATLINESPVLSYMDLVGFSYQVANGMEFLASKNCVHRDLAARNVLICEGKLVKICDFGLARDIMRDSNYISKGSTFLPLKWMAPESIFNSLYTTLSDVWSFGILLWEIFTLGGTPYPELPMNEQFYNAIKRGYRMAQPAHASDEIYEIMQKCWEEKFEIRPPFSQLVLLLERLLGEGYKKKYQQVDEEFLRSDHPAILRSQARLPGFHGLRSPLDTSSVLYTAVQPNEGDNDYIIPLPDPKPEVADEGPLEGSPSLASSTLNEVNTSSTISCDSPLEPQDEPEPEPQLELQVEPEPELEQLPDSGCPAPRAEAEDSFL
Conditions: not given
Turning to `Nc1nc(Nc2cccc(Br)c2)c2cc(CCc3ccccc3Cl)[nH]c2n1`, the pIC50 was less than 4.30.

The molecule `Nc1nc(Nc2ccc(F)c(C(F)(F)F)c2)c2cc(CCc3ccccc3)[nH]c2n1` had a pIC50 of 4.05.

Consider `Nc1nc(Nc2ccc(F)c(Br)c2)c2cc(CCc3ccccc3)[nH]c2n1`, for which the pIC50 was less than 3.30.

`Nc1nc(Nc2cccc(C(F)(F)F)c2)c2cc(CCc3ccccc3)[nH]c2n1` had a pIC50 of less than 3.30.

Molecule `Nc1nc(Nc2ccc(Cl)cc2F)c2cc(CCc3ccccc3)[nH]c2n1` had a pIC50 of less than 3.30.

`Nc1nc(Nc2cccc(Br)c2)c2cc(CCc3cccc4ccccc34)[nH]c2n1` gave a pIC50 of 4.96.

In turn, `Nc1nc(Nc2cccc(Br)c2)c2cc(CCc3ccc4ccccc4c3)[nH]c2n1` had a pIC50 of 4.86.

With `Nc1nc(Nc2cccc(Br)c2)c2cc(CCc3ccccc3)[nH]c2n1`, the pIC50 was 4.93.

As for `COc1ccc(CCc2cc3c(Nc4cccc(Br)c4)nc(N)nc3[nH]2)cc1`, the pIC50 is less than 4.30.

`Nc1nc(Nc2ccc3[nH]ccc3c2)c2cc(CCc3ccccc3)[nH]c2n1` showed a negative-log IC50 (pIC50) of 4.11.

`Nc1nc(Nc2cccc(Br)c2)c2cc(Cc3ccccc3)[nH]c2n1` showed a pIC50 of less than 4.30.

Molecule `Nc1nc(Nc2cccc(Br)c2)c2cc(Cc3ccccc3Cl)[nH]c2n1` had a pIC50 of less than 4.30.

As to `Nc1nc(Nc2cccc(Br)c2)c2cc(Cc3ccc4ccccc4c3)[nH]c2n1`, the pIC50 was less than 4.30.

Consider `Nc1nc(Nc2ccc(F)c(Cl)c2)c2cc(CCc3ccccc3)[nH]c2n1`, for which the pIC50 is less than 3.30.

Take `Nc1nc(Nc2ccc(Cl)cc2)c2cc(CCc3ccccc3)[nH]c2n1`: the pIC50 is less than 3.30.

Consider `C#Cc1cccc(Nc2nc(N)nc3[nH]c(CCc4ccccc4)cc23)c1`, for which the pIC50 was 4.00.

The target in a further experiment is Vascular endothelial growth factor receptor 2 (Homo sapiens, UniProt P35968).
Sequence of Vascular endothelial growth factor receptor 2 (P35968 whole entry): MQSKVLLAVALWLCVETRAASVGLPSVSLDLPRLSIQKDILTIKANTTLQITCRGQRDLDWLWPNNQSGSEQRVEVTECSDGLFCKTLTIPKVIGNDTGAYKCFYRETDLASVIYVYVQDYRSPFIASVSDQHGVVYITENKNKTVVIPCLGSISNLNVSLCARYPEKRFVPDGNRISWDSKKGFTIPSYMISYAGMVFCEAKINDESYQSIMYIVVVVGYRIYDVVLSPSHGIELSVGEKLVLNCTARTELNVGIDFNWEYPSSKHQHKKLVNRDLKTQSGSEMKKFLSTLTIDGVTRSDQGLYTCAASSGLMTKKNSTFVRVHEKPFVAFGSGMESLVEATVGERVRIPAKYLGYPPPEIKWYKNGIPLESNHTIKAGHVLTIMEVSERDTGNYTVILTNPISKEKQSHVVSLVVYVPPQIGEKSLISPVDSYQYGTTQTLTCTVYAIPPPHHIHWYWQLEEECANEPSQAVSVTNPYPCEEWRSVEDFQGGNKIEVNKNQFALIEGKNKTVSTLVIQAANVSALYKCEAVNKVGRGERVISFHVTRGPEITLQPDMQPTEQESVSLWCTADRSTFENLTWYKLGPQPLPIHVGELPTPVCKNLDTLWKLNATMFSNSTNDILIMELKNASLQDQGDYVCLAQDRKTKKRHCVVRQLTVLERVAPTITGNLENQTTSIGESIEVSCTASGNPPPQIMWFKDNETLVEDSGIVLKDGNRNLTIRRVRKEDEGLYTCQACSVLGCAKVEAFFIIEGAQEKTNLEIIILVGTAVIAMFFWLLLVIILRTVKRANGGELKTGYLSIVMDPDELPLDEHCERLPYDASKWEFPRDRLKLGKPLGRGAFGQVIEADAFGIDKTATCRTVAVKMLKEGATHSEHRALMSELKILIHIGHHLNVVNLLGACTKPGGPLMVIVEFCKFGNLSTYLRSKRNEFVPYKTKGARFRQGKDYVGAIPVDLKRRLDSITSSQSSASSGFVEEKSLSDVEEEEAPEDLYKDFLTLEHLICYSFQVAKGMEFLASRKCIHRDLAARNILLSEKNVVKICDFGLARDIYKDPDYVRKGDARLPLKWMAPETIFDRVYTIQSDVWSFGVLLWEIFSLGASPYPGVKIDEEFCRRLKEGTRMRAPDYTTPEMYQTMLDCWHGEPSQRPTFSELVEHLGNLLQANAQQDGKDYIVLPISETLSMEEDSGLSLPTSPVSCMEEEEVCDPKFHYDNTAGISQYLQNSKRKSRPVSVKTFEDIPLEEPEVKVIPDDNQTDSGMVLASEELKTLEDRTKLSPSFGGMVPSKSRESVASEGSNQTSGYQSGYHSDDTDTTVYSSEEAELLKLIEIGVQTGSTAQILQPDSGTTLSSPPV
Test: not given
Conditions: not given
`Nc1nc(Nc2cccc(Br)c2)c2cc(CCc3ccccc3Cl)[nH]c2n1` had a pIC50 of 4.37.

In turn, `Nc1nc(Nc2ccc(F)c(C(F)(F)F)c2)c2cc(CCc3ccccc3)[nH]c2n1` showed a pIC50 of less than 3.70.

Molecule `Nc1nc(Nc2ccc(F)c(Br)c2)c2cc(CCc3ccccc3)[nH]c2n1` had a pIC50 of 3.70.

Molecule `Nc1nc(Nc2cccc(C(F)(F)F)c2)c2cc(CCc3ccccc3)[nH]c2n1` showed a pIC50 of less than 3.70.

`Nc1nc(Nc2ccc(Cl)cc2F)c2cc(CCc3ccccc3)[nH]c2n1` gave a pIC50 of less than 3.70.

`Nc1nc(Nc2cccc(Br)c2)c2cc(CCc3ccc4ccccc4c3)[nH]c2n1` showed a pIC50 of 4.77.

`Nc1nc(Nc2cccc(Br)c2)c2cc(CCc3ccccc3)[nH]c2n1` gave a negative logarithm of the IC50 (pIC50) of less than 4.30.

Take `COc1ccc(CCc2cc3c(Nc4cccc(Br)c4)nc(N)nc3[nH]2)cc1`: the pIC50 was less than 4.30.

Regarding `Nc1nc(Nc2ccc3[nH]ccc3c2)c2cc(CCc3ccccc3)[nH]c2n1`, the negative logarithm of the IC50 (pIC50) was 4.60.

With `Nc1nc(Nc2ccc(F)c(Cl)c2)c2cc(CCc3ccccc3)[nH]c2n1`, the pIC50 was 3.88.

On to `Nc1nc(Nc2ccc(Cl)cc2)c2cc(CCc3ccccc3)[nH]c2n1`, for which the pIC50 was less than 3.70.

In the case of `C#Cc1cccc(Nc2nc(N)nc3[nH]c(CCc4ccccc4)cc23)c1`, the pIC50 is less than 3.70.

Another experiment deals with A-431. The experiment in a line: cells. The note with it: Homo sapiens.
Description: Cytotoxicity against human A431 cells
Take `Nc1nc(Nc2cccc(Br)c2)c2cc(CCc3ccccc3Cl)[nH]c2n1`: the pIC50 is 4.88.

Consider `Nc1nc(Nc2ccc(F)c(Br)c2)c2cc(CCc3ccccc3)[nH]c2n1`, for which the pIC50 is 5.47.

`Nc1nc(Nc2cccc(Br)c2)c2cc(CCc3cccc4ccccc34)[nH]c2n1`: the pIC50 was 5.09.

Regarding `Nc1nc(Nc2cccc(Br)c2)c2cc(CCc3ccc4ccccc4c3)[nH]c2n1`, the pIC50 was less than 4.30.

`COc1ccc(CCc2cc3c(Nc4cccc(Br)c4)nc(N)nc3[nH]2)cc1` had a pIC50 of less than 4.30.

For the molecule `Nc1nc(Nc2ccc(F)c(Cl)c2)c2cc(CCc3ccccc3)[nH]c2n1`, the pIC50 was 5.17.

With `Nc1nc(Nc2ccc(Cl)cc2)c2cc(CCc3ccccc3)[nH]c2n1`, the pIC50 is 5.80.

Another experiment is filed under the species Gallus gallus. The experiment in a line: Antiangiogenic activity against fertile leghorn chicken eggs by CAM assay. In kind it is functional, organism-based.
Conditions: not given
`Nc1nc(Nc2cccc(Br)c2)c2cc(Cc3cccc4ccccc34)[nH]c2n1` gave a pIC50 of 7.28.

`Nc1nc(Nc2cccc(Br)c2)c2cc(CCc3ccccc3Cl)[nH]c2n1` had a pIC50 of 5.00.

Molecule `Nc1nc(Nc2cccc(Br)c2)c2cc(CCc3cccc4ccccc34)[nH]c2n1` showed a pIC50 of 4.82.

In the case of `Nc1nc(Nc2cccc(Br)c2)c2cc(CCc3ccc4ccccc4c3)[nH]c2n1`, the pIC50 is 4.72.

In turn, `Nc1nc(Nc2cccc(Br)c2)c2cc(CCc3ccccc3)[nH]c2n1` gave a pIC50 of 4.71.

Molecule `COc1ccc(CCc2cc3c(Nc4cccc(Br)c4)nc(N)nc3[nH]2)cc1` had a negative logarithm of the IC50 (pIC50) of 4.68.

Turning to `Nc1nc(Nc2cccc(Br)c2)c2cc(Cc3ccccc3Cl)[nH]c2n1`, the pIC50 is 5.77.

`Nc1nc(Nc2ccc(F)c(Cl)c2)c2cc(CCc3ccccc3)[nH]c2n1` had a negative logarithm of the IC50 (pIC50) of 5.23.

As to `Nc1nc(Nc2ccc(Cl)cc2)c2cc(CCc3ccccc3)[nH]c2n1`, the pIC50 was 5.48.

Another experiment addresses Epidermal growth factor receptor (Homo sapiens, UniProt P00533). The experiment in a line: Inhibition of EGFR expressed in human tumor cells.
Conditions: not given
The molecule `Nc1nc(Nc2cccc(Br)c2)c2cc(CCc3ccccc3Cl)[nH]c2n1` gave a pIC50 of 5.47.

Molecule `Nc1nc(Nc2ccc(F)c(C(F)(F)F)c2)c2cc(CCc3ccccc3)[nH]c2n1` gave a pIC50 of 3.91.

`Nc1nc(Nc2ccc(F)c(Br)c2)c2cc(CCc3ccccc3)[nH]c2n1` had a negative logarithm of the IC50 (pIC50) of less than 3.70.

In turn, `Nc1nc(Nc2cccc(C(F)(F)F)c2)c2cc(CCc3ccccc3)[nH]c2n1` had a pIC50 of less than 3.70.

Regarding `Nc1nc(Nc2ccc(Cl)cc2F)c2cc(CCc3ccccc3)[nH]c2n1`, the pIC50 is 5.88.

Turning to `Nc1nc(Nc2cccc(Br)c2)c2cc(CCc3cccc4ccccc34)[nH]c2n1`, the pIC50 is 5.32.

Turning to `Nc1nc(Nc2cccc(Br)c2)c2cc(CCc3ccc4ccccc4c3)[nH]c2n1`, the negative logarithm of the IC50 (pIC50) was 5.33.

`Nc1nc(Nc2cccc(Br)c2)c2cc(CCc3ccccc3)[nH]c2n1` gave a pIC50 of 6.52.

In the case of `COc1ccc(CCc2cc3c(Nc4cccc(Br)c4)nc(N)nc3[nH]2)cc1`, the pIC50 is 5.66.

Consider `Nc1nc(Nc2ccc3[nH]ccc3c2)c2cc(CCc3ccccc3)[nH]c2n1`, for which the pIC50 is less than 3.70.

`Nc1nc(Nc2ccc(F)c(Cl)c2)c2cc(CCc3ccccc3)[nH]c2n1` gave a pIC50 of 4.64.

`Nc1nc(Nc2ccc(Cl)cc2)c2cc(CCc3ccccc3)[nH]c2n1` gave a pIC50 of 5.50.

In turn, `C#Cc1cccc(Nc2nc(N)nc3[nH]c(CCc4ccccc4)cc23)c1` gave a pIC50 of less than 3.70.

For a further experiment, the target named is Vascular endothelial growth factor receptor 1 (Homo sapiens, UniProt P17948). The experiment in a line: Inhibition of VEGFR1 expressed in human tumor cells.
Sequence of Vascular endothelial growth factor receptor 1 (P17948 whole entry): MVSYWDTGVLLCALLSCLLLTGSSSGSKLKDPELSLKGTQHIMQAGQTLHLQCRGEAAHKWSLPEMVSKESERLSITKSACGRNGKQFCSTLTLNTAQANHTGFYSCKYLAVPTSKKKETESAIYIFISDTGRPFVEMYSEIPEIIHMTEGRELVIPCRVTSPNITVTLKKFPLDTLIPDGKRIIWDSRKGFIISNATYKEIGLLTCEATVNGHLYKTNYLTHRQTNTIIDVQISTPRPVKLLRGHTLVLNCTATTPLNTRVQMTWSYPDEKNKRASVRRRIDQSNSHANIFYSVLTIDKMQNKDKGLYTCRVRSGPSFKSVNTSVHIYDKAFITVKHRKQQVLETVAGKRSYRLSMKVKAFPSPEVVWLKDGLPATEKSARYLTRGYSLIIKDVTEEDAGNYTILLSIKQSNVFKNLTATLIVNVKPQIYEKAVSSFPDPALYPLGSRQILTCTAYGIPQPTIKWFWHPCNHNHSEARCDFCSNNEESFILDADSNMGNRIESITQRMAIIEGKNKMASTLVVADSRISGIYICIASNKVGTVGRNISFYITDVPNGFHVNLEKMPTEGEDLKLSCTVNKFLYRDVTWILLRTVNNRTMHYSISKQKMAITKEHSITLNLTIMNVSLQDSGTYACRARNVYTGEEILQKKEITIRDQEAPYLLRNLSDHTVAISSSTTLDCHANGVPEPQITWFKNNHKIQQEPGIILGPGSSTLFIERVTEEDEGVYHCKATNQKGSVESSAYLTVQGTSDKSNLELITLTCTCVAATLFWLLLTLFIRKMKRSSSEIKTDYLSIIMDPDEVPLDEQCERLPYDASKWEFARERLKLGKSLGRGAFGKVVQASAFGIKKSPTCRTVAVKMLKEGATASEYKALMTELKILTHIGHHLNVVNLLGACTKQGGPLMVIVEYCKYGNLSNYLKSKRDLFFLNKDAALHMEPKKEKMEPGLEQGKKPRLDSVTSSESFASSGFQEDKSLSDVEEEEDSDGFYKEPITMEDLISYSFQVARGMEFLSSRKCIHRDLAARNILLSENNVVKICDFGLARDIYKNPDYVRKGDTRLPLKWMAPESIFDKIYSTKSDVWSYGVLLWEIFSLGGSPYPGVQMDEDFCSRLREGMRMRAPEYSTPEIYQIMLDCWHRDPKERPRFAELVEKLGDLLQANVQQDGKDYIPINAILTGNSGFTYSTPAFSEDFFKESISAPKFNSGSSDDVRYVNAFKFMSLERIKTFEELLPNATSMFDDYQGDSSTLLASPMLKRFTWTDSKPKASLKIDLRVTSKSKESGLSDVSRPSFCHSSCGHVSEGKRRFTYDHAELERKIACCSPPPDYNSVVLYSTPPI
Conditions: not given
The molecule `Nc1nc(Nc2cccc(Br)c2)c2cc(CCc3ccccc3Cl)[nH]c2n1` showed a pIC50 of 4.49.

Turning to `Nc1nc(Nc2ccc(F)c(C(F)(F)F)c2)c2cc(CCc3ccccc3)[nH]c2n1`, the pIC50 was less than 3.70.

Consider `Nc1nc(Nc2ccc(F)c(Br)c2)c2cc(CCc3ccccc3)[nH]c2n1`, for which the pIC50 was less than 3.70.

Turning to `Nc1nc(Nc2cccc(C(F)(F)F)c2)c2cc(CCc3ccccc3)[nH]c2n1`, the pIC50 was less than 3.70.

The molecule `Nc1nc(Nc2ccc(Cl)cc2F)c2cc(CCc3ccccc3)[nH]c2n1` showed a pIC50 of less than 3.70.

With `Nc1nc(Nc2cccc(Br)c2)c2cc(CCc3cccc4ccccc34)[nH]c2n1`, the negative-log IC50 (pIC50) is 4.95.

Molecule `Nc1nc(Nc2cccc(Br)c2)c2cc(CCc3ccc4ccccc4c3)[nH]c2n1` showed a pIC50 of 5.11.

In turn, `Nc1nc(Nc2cccc(Br)c2)c2cc(CCc3ccccc3)[nH]c2n1` had a pIC50 of 4.35.

The molecule `COc1ccc(CCc2cc3c(Nc4cccc(Br)c4)nc(N)nc3[nH]2)cc1` gave a pIC50 of 4.50.

Molecule `Nc1nc(Nc2ccc3[nH]ccc3c2)c2cc(CCc3ccccc3)[nH]c2n1` gave a pIC50 of less than 3.70.

Turning to `Nc1nc(Nc2ccc(F)c(Cl)c2)c2cc(CCc3ccccc3)[nH]c2n1`, the pIC50 was less than 3.70.

`Nc1nc(Nc2ccc(Cl)cc2)c2cc(CCc3ccccc3)[nH]c2n1` gave a pIC50 of less than 3.70.

As to `C#Cc1cccc(Nc2nc(N)nc3[nH]c(CCc4ccccc4)cc23)c1`, the pIC50 was less than 3.70.
